# Reference: the supplement of paper PMC10331698
# ± gives the standard deviation of the averaged measurements.
# Key:
# Assay in all cases: level (log10 ratio to DMSO vehicle control); higher = higher biomarker level / cell amount than vehicle control
# Methotrexate = compound: CN(Cc1cnc2nc(N)nc(N)c2n1)c1ccc(C(=O)N[C@@H](CCC(=O)O)C(=O)O)cc1 [Methotrexate]; conditions: in DMSO
# Description: (§1)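 BioMAP Diversity Plus panel of 12 human primary cell co-culture systems (3C, 4H, LPS, SAg, BT, BF4T, BE3C, CASM3C, HDF3CGF, KF3CT, MyoF, Mphg). Compounds were added 1 h before stimulation and left for 24 h (MyoF 48 h; BT 72 h for soluble read-outs or 6 d for IgG). Biomarkers were read by ELISA, cytotoxicity by SRB, PBMC viability and proliferation by Alamar Blue. Each well value was divided by the mean of 8 DMSO control wells on the same plate and log10 transformed; duplicate blinded samples were tested at 4 concentrations.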
# [1] = compound: C=C(C)C(=O)OCC(F)(F)C(F)(F)C(F)(F)F [2,2,3,3,4,4,4-Heptafluorobutyl methacrylate]; conditions: in DMSO
# Description: as §1
# [2] = compound: OCC(F)(F)C(F)(F)C(F)(F)C(F)(F)C(F)(F)C(F)(F)C(F)(F)C(F)(F)CO [1H,1H,10H,10H-Perfluorodecane-1,10-diol]; conditions: in DMSO
# Description: as §1
# [3] = compound: FC(F)(F)COC(OCC(F)(F)F)OCC(F)(F)F [tris(Trifluoroethoxy)methane]; conditions: in DMSO
# Description: as §1
# [4] = compound: OCCC(F)(F)C(F)(F)C(F)(F)C(F)(F)C(F)(F)C(F)(F)C(F)(F)C(F)(F)F [8:2 Fluorotelomer alcohol]; conditions: 6700 nM; in DMSO
# Description: as §1
# Perfluoropinacol = compound: OC(C(F)(F)F)(C(F)(F)F)C(O)(C(F)(F)F)C(F)(F)F [Perfluoropinacol]; conditions: in DMSO
# Description: as §1
# [5] = compound: Cc1ccc(S(=O)(=O)OCC(F)(F)C(F)(F)C(F)(F)C(F)(F)C(F)(F)C(F)F)cc1 [1H,1H,7H-Perfluoroheptyl 4-methylbenzenesulfonate]; conditions: in DMSO
# Description: as §1
Test System,level (log10) (Methotrexate; 1500 nM),level (log10) (Methotrexate; 4400 nM),level (log10) (Methotrexate; 13000 nM),level (log10) (Methotrexate; 40000 nM),level (log10) ([1]; 6700 nM),level (log10) ([1]; 20000 nM),level (log10) ([1]; 60000 nM),level (log10) ([2]; 6700 nM),level (log10) ([2]; 20000 nM),level (log10) ([2]; 60000 nM),level (log10) ([3]; 6700 nM),level (log10) ([3]; 20000 nM),level (log10) ([3]; 60000 nM),level (log10) [4],level (log10) (Perfluoropinacol; 6700 nM),level (log10) (Perfluoropinacol; 20000 nM),level (log10) ([5]; 6700 nM),level (log10) ([5]; 20000 nM),level (log10) ([5]; 60000 nM)
3C:CD141/Thrombomodulin,-0.024 ± 0.0085,-0.016 ± 0.0057,-0.0235 ± 0.067,-0.0265 ± 0.019,-0.009 ± 0.0099,-0.0145 ± 0.013,0.002 ± 0.0071,-0.027 ± 0.037,-0.016 ± 0.0014,0.055,-0.012 ± 0.061,-0.038 ± 0.047,-0.0425 ± 0.049,0.044 ± 0.0057,-0.0165 ± 0.0021,-0.033 ± 0.034,0.008 ± 0.0028,0.021 ± 0.0014,0.0395 ± 0.00071
HDF3CGF:CCL2/MCP-1,-0.0395 ± 0.059,-0.0325 ± 0.093,-0.0425 ± 0.071,-0.0435 ± 0.11,0.0055 ± 0.012,-0.001 ± 0.0057,-0.0115 ± 0.018,-0.01,-0.0565 ± 0.036,-0.724,0.0035 ± 0.06,0.006 ± 0.051,0.0165 ± 0.035,-0.0175 ± 0.032,0.0595 ± 0.0064,0.09 ± 0.0085,-0.0645 ± 0.026,-0.108 ± 0.013,-0.091 ± 0.0042
CASM3C:SRB,0.001,-0.0095 ± 0.0064,-0.0055 ± 0.0035,-0.0105 ± 0.011,0.0045 ± 0.0021,-0.0005 ± 0.0092,-0.004 ± 0.0057,0.0015 ± 0.0021,-0.002 ± 0.0099,-0.067,-0.0005 ± 0.011,-0.0065 ± 0.013,-0.0095 ± 0.013,-0.014 ± 0.0057,-0.02 ± 0.0099,-0.061 ± 0.0057,0.002 ± 0.0014,-0.0055 ± 0.0078,-0.0125 ± 0.0035
KF3CT:SRB,0.0105 ± 0.012,-0.002 ± 0.0057,0.0025 ± 0.0035,0.009 ± 0.021,0.0025 ± 0.0021,0.0045 ± 0.011,-0.0075 ± 0.00071,-0.0155 ± 0.015,-0.022 ± 0.011,-0.25,-0.0125 ± 0.00071,-0.0015 ± 0.0035,-0.0035 ± 0.012,0.0075 ± 0.0064,-0.004 ± 0.0042,-0.014 ± 0.02,-0.0215 ± 0.013,-0.032 ± 0.011,-0.0335 ± 0.0078
HDF3CGF:M-CSF,-0.051 ± 0.076,-0.0445 ± 0.077,-0.033 ± 0.1,-0.0655 ± 0.17,0.0085 ± 0.00071,0.0255 ± 0.0078,0.0135 ± 0.029,0.0095 ± 0.035,0.001 ± 0.038,-0.304,-0.0005 ± 0.00071,-0.0125 ± 0.005,0.022 ± 0.037,-0.044 ± 0.028,-0.024 ± 0.055,-0.239 ± 0.049,-0.0385 ± 0.0021,-0.0225 ± 0.036,-0.0095 ± 0.013
CASM3C:CCL2/MCP-1,0 ± 0.0028,-0.0125 ± 0.005,-0.002 ± 0.016,-0.0195 ± 0.025,0.005 ± 0.013,0.0045 ± 0.0035,0.013 ± 0.0071,0 ± 0.0028,-0.027 ± 0.0028,0.02,0.001 ± 0.0042,-0.0005 ± 0.0064,0.0215 ± 0.035,-0.0125 ± 0.0021,0.0185 ± 0.013,0.096 ± 0.017,-0.0075 ± 0.0035,-0.02 ± 0.0057,0.011 ± 0.025
KF3CT:uPA,-0.0115 ± 0.0021,-0.0195 ± 0.00071,-0.031 ± 0.057,-0.045 ± 0.059,-0.0035 ± 0.011,-0.008 ± 0.021,-0.003 ± 0.0042,0.007 ± 0.0042,0.009 ± 0.0071,-0.021,-0.0005 ± 0.043,-0.011 ± 0.018,-0.014 ± 0.023,0.0155 ± 0.0078,0.0065 ± 0.035,0.019 ± 0.021,0.006 ± 0.021,-0.036 ± 0.023,-0.0335 ± 0.022
KF3CT:TIMP-2,-0.029 ± 0.035,-0.034 ± 0.069,-0.0325 ± 0.06,-0.0195 ± 0.088,-0.004 ± 0.016,-0.0165 ± 0.00071,-0.0035 ± 0.012,-0.001 ± 0.011,0.011 ± 0.0099,-0.133,-0.0025 ± 0.021,-0.007 ± 0.011,-0.0045 ± 0.012,-0.0175 ± 0.026,0.013 ± 0.0085,0.0745 ± 0.0064,-0.0015 ± 0.005,0.0025 ± 0.029,0.017 ± 0.021
lMphg:IL-1alpha,-0.0335 ± 0.097,-0.0545 ± 0.083,-0.041 ± 0.057,-0.028 ± 0.047,0.01 ± 0.0057,0.0245 ± 0.012,0.03 ± 0.034,0.002 ± 0.028,0.0055 ± 0.046,-0.167,-0.031 ± 0.014,-0.03 ± 0.0028,-0.006 ± 0.03,-0.0045 ± 0.025,0.103 ± 0.021,0.149 ± 0.067,-0.034 ± 0.017,-0.036 ± 0.042,0.033 ± 0.099
lMphg:CD40,0.0125 ± 0.005,0.0005 ± 0.013,-0.0155 ± 0.023,0.0045 ± 0.0021,0.0055 ± 0.011,-0.005 ± 0.016,-0.0195 ± 0.0078,-0.0285 ± 0.0064,-0.0695 ± 0.032,-0.536,-0.0235 ± 0.044,-0.0135 ± 0.012,-0.0265 ± 0.032,-0.0275 ± 0.0035,-0.0265 ± 0.019,-0.202 ± 0.03,-0.009 ± 0.016,-0.0175 ± 0.0092,-0.0135 ± 0.005
HDF3CGF:Proliferation 72hr,-0.0885 ± 0.042,-0.076 ± 0.13,-0.0515 ± 0.036,-0.083 ± 0.05,-0.0095 ± 0.087,0.001 ± 0.042,0.008 ± 0.0071,-0.0305 ± 0.046,-0.112 ± 0.05,-1.01,-0.038 ± 0.081,0.001 ± 0.038,-0.006 ± 0.038,-0.374 ± 0.26,-0.183 ± 0.044,-0.39 ± 0.05,-0.031 ± 0.011,0.0195 ± 0.036,-0.197 ± 0.11
CASM3C:IL-6,-0.035 ± 0.041,-0.087 ± 0.076,-0.009 ± 0.023,-0.039 ± 0.041,0.004 ± 0.031,0.0105 ± 0.028,0.022 ± 0.0071,-0.045 ± 0.027,-0.071 ± 0.025,-0.059,-0.019 ± 0.0028,-0.0295 ± 0.011,0.005 ± 0.067,-0.015 ± 0.014,-0.0045 ± 0.025,0.033 ± 0.0085,-0.035 ± 0.013,-0.0435 ± 0.005,-0.0155 ± 0.033
HDF3CGF:CXCL10/IP-10,0.013 ± 0.0028,0.002 ± 0.0057,0.0035 ± 0.00071,-0.001 ± 0.016,-0.017 ± 0.0071,-0.021 ± 0.0071,-0.024 ± 0.016,-0.0045 ± 0.028,-0.0355 ± 0.0035,-0.578,0.0005 ± 0.0092,-0.002 ± 0.0071,-0.015 ± 0.0057,-0.039 ± 0.0085,-0.0535 ± 0.023,-0.215 ± 0.012,-0.008 ± 0.025,0.0085 ± 0.013,0.006 ± 0.055
